Source: US9969762B2
Converted amounts (≈) assume the structure as drawn. Where two headings read alike, the source gives them in different places.

Legend:
[1] = tested on: Pectobacterium atrosepticum; experiment: Antibacterial activity (MIC and MBC) in TY medium; assay type: cell-based; conditions: for MBC: plated on TY agar
[2] = tested on: Agrobacterium tumefaciens; experiment: Antibacterial activity (MIC and MBC) in TY medium; assay type: cell-based; conditions: for MBC: plated on TY agar
Dickeya dianthicola = experiment: Antibacterial activity (MIC and MBC) in TY medium; assay type: cell-based; conditions: for MBC: plated on TY agar
[3] = tested on: Agrobacterium tumefaciens, Pectobacterium atrosepticum and Dickeya dianthicola bacteria; experiment: Antibacterial activity, summary statements over the bacteria tested; assay type: cell-based; conditions: for inhibition of the growth of the bacteria (in words): after 36 h of incubation at 30° C., compared with 4-NPO
Phytophthora infestans = experiment: microbe, parasite or virus in culture; assay type: cell-based; conditions: after 6 days; 20 mg in 200 μl distilled water, spots of 10 μl
Fusarium roseum = conditions: for Inhibition of the growth of the Fusarium roseum fungi: compound in methanol, more than 10 days at 20° C.; for Inhibition of the growth of the fungi: compound in DMSO, 10 days at 20° C.
Protocol: (§1) The antifungal activity of the N-alkyl-glycosyl(di)amine derivatives of formula (I) and of the N-alkyl-glycamine derivatives of formula (III) synthesized according to the process of the invention was evaluated on two fungi: Fusarium roseum and Fusarium sambucinum.
(§2) For this, 500 μl of solution comprising the test derivative, dissolved in DMSO or methanol, are mixed with 19.5 ml of malt agar medium (Sigma aldrich) allowing the growth of these two Fusarium isolates. The test derivative is prepared in 2 ml of methanol, then mixed with 18 ml of malt agar medium (Sigma aldrich). A spot of 10 μl of culture of each Fusarium is then deposited at the center of each Petri dish. After 10 days of incubation at 20° C., the growth diameters are measured.
(§3) The range of concentrations of N-alkyl-glycosyl(di)amine derivatives of formula (I) tested ranges from 0.1 to 25 μmol/ml.
(§4) The Fusarium growth on media containing the various molecules is compared with that obtained only with DMSO or methanol.
(§5) The same antifungal evaluation protocol as the one previously described with the compound Ij was applied for other N-alkyl-glycosyl(di)amine derivatives of formula (I) and N-alkyl-glycamine derivatives of formula (III) at concentrations ranging from 1 to 20 μmol/ml.
(§6) 2 ml of solution comprising the test compound dissolved in methanol are mixed with 18 ml of agar malt medium (Sigma aldrich) allowing the growth of these two Fusarium isolates. A spot of 10 μl of culture of each Fusarium is then deposited at the center of each Petri dish. After more than 10 days of incubation at 20° C., the growth diameters are measured.

Fusarium sambucinum = conditions: for Inhibition of the growth of the Fusarium sambucinum fungi: compound in methanol, more than 10 days at 20° C.; for Inhibition of the growth of the fungi: compound in DMSO, 10 days at 20° C.
Protocol: as §1, §2, §3, §4, §5, §6

[4] = 36 h of culture at 30° C., TY medium

Row | SMILES | bactericidal activity (in words) [3] | inhibition of the growth of the bacteria (in words) [3] | MIC [1, 4] | MIC [2, 4] | Average diameters of inhibition zone (Phytophthora infestans) | Inhibition of the growth of the Fusarium roseum fungi (Fusarium roseum; 1 μmol/ml) | Inhibition of the growth of the Fusarium roseum fungi (Fusarium roseum; 2.5 μmol/ml) | Inhibition of the growth of the Fusarium roseum fungi (Fusarium roseum; 5 μmol/ml) | MBC ([1]; 36 h of culture at 30° C.) | Inhibition of the growth of the Fusarium sambucinum fungi (Fusarium sambucinum; 1 μmol/ml) | Inhibition of the growth of the Fusarium sambucinum fungi (Fusarium sambucinum; 2.5 μmol/ml) | Inhibition of the growth of the Fusarium sambucinum fungi (Fusarium sambucinum; 5 μmol/ml) | MBC ([2]; 36 h of culture at 30° C.) | also measured
1 | O=[N+]([O-])c1cc[n+]([O-])cc1 [4-NPO, 4-Nitropyridine-N-oxide, reference compound] | – | – | – | – | – | – | – | – | – | – | – | – | – | MIC ([1]; Pectobacterium atrosepticum, 36 h, 36 h of culture at 30° C., TY medium, read-out: MIC): 125 µg/mL (≈ 892 µM); MIC ([1]; Pectobacterium atrosepticum, reference bacteriostatic molecule, read-out: MIC): 125 µg/mL (≈ 892 µM); MIC ([2]; Agrobacterium tumefaciens, 36 h, 36 h of culture at 30° C., TY medium, read-out: MIC): 125 µg/mL (≈ 892 µM); MIC ([2]; Agrobacterium tumefaciens, reference bacteriostatic molecule, read-out: MIC): 125 µg/mL (≈ 892 µM); MIC (Dickeya dianthicola; Dickeya dianthicola, 36 h of culture at 30° C., TY medium, read-out: MIC): 16 µg/mL (≈ 114 µM); MBC (Dickeya dianthicola; Dickeya dianthicola, 36 h of culture at 30° C., read-out: MBC): 16 µg/mL (≈ 114 µM); MIC (Dickeya dianthicola; Dickeya dianthicola, reference bacteriostatic molecule, read-out: MIC): 16 µg/mL (≈ 114 µM)
2 | CC1OC(NCCCCCNC2OC(C)[C@H](O)C(O)C2O)C(O)C(O)[C@H]1O (some centres unmarked) [Ig] | showed a bactericidal activity | inhibition of the growth of the bacteria was observed | 125 µg/mL (≈ 317 µM) | 125 µg/mL (≈ 317 µM) | – | – | – | – | – | – | – | – | – | MBC ([1]; Pectobacterium atrosepticum, 36 h, 36 h of culture at 30° C., read-out: MBC): 250 µg/mL (≈ 634 µM); MBC ([2]; Agrobacterium tumefaciens, 36 h, 36 h of culture at 30° C., read-out: MBC): 250 µg/mL (≈ 634 µM)
3 | CCCCCCCCCCCCNCC(O)C(O)C(O)C(C)O (centres unmarked) [compound IIIa] | showed a bactericidal activity | inhibition of the growth of the bacteria was observed | 32 µg/mL (≈ 95.9 µM) | 16 µg/mL (≈ 48 µM) | 24 mm | 100% | 100% | 100% | 32 µg/mL (≈ 95.9 µM) | 100% | 100% | 100% | 62.5 µg/mL (≈ 187 µM) | MIC (Dickeya dianthicola; [4]): 62.5 µg/mL (≈ 187 µM); MBC (Dickeya dianthicola; 36 h of culture at 30° C.): 62.5 µg/mL (≈ 187 µM)
4 | CCCCCCCCCCCCNCC(O)C(O)C(O)C(O)CO (centres unmarked) [compound IIIb] | showed a bactericidal activity | inhibition of the growth of the bacteria was observed | 32 µg/mL (≈ 91.6 µM) | 16 µg/mL (≈ 45.8 µM) | 20 mm | 100% | 100% | 100% | 32 µg/mL (≈ 91.6 µM) | 96% | 96% | 100% | 32 µg/mL (≈ 91.6 µM) | MIC (Dickeya dianthicola; [4]): 62.5 µg/mL (≈ 179 µM); MBC (Dickeya dianthicola; 36 h of culture at 30° C.): 62.5 µg/mL (≈ 179 µM)
5 | CCCCCCCCCCCCNCC(O)C(O)C(O)C(O)CO (centres unmarked) [compound IIIc] | showed a bactericidal activity | inhibition of the growth of the bacteria was observed | 62.5 µg/mL (≈ 179 µM) | >500 µg/mL | 18 mm | 100% | 100% | 100% | 62.5 µg/mL (≈ 179 µM) | 98% | 100% | 100% | >500 µg/mL | MIC (Dickeya dianthicola; [4]): >500 µg/mL; MBC (Dickeya dianthicola; 36 h of culture at 30° C.): >500 µg/mL
6 | CC(O)C(O)C(O)C(O)CNCCCCCCCCCCCCN (centres unmarked) [compound IIId] | showed a bactericidal activity | inhibition of the growth of the bacteria was observed | 62.5 µg/mL (≈ 179 µM) | 52.5 µg/mL (≈ 151 µM) | 0 mm | – | – | – | 62.5 µg/mL (≈ 179 µM) | – | – | – | 250 µg/mL (≈ 717 µM) | MIC (Dickeya dianthicola; [4]): 16 µg/mL (≈ 45.9 µM); MBC (Dickeya dianthicola; 36 h of culture at 30° C.): 125 µg/mL (≈ 359 µM)
7 | CCCCNC1OC(C)[C@H](O)C(O)C1O (some centres unmarked) [compound Ib] | – | – | – | – | – | 0% | 0% | 0% | – | 0% | 0% | 4% | – | Inhibition of the growth of the Fusarium roseum fungi (Fusarium roseum; 10 μmol/ml): 70%; Inhibition of the growth of the Fusarium roseum fungi (Fusarium roseum; 20 μmol/ml): 88%; Inhibition of the growth of the Fusarium sambucinum fungi (Fusarium sambucinum; 10 μmol/ml): 76%; Inhibition of the growth of the Fusarium sambucinum fungi (Fusarium sambucinum; 20 μmol/ml): 90%
8 | CCCCCNC1OC(C)[C@H](O)C(O)C1O (some centres unmarked) [compound Ic] | – | inhibition of the growth of the bacteria was observed | 62.5 µg/mL (≈ 268 µM) | 125 µg/mL (≈ 536 µM) | – | 0% | 18% | 99% | >500 µg/mL | 10% | 33% | 89% | – | Inhibition of the growth of the Fusarium roseum fungi (Fusarium roseum; 10 μmol/ml): 99%; Inhibition of the growth of the Fusarium roseum fungi (Fusarium roseum; 20 μmol/ml): 100%; Inhibition of the growth of the Fusarium sambucinum fungi (Fusarium sambucinum; 10 μmol/ml): 90%; Inhibition of the growth of the Fusarium sambucinum fungi (Fusarium sambucinum; 20 μmol/ml): 100%
9 | CCCCCNC1OC(C)[C@H](O)C(O)C1O (some centres unmarked) [compound Id] | showed a bactericidal activity | inhibition of the growth of the bacteria was observed | 62.5 µg/mL (≈ 268 µM) | 62.5 µg/mL (≈ 268 µM) | – | – | – | – | 250 µg/mL (≈ 1070 µM) | – | – | – | 250 µg/mL (≈ 1070 µM) | –
10 | CC1OC(NCCCCCNC2OC(C)[C@H](O)C(O)C2O)C(O)C(O)[C@H]1O (some centres unmarked) [compound If] | – | inhibition of the growth of the bacteria was observed | 250 µg/mL (≈ 634 µM) | >500 µg/mL | – | – | – | – | – | – | – | – | – | –
11 | CC1OC(NCCCCCNC2OC(C)[C@H](O)C(O)C2O)C(O)C(O)[C@H]1O (some centres unmarked) [compound Ih] | showed a bactericidal activity | inhibition of the growth of the bacteria was observed | 62.5 µg/mL (≈ 158 µM) | 62.5 µg/mL (≈ 158 µM) | – | 0% | 28% | 90% | 125 µg/mL (≈ 317 µM) | 12% | 27% | 100% | 500 µg/mL (≈ 1270 µM) | Inhibition of the growth of the Fusarium roseum fungi (Fusarium roseum; 10 μmol/ml): 93%; Inhibition of the growth of the Fusarium roseum fungi (Fusarium roseum; 20 μmol/ml): 93%; Inhibition of the growth of the Fusarium sambucinum fungi (Fusarium sambucinum; 10 μmol/ml): 100%; Inhibition of the growth of the Fusarium sambucinum fungi (Fusarium sambucinum; 20 μmol/ml): 100%
12 | CC1OC(NCCCCCCCCCCCCN)C(O)C(O)C1O (centres unmarked) [compound Ii] | showed a bactericidal activity | – | 8 µg/mL (≈ 23.1 µM) | 16 µg/mL (≈ 46.2 µM) | – | 0% | 34% | 93% | 16 µg/mL (≈ 46.2 µM) | 28% | 60% | 100% | 32 µg/mL (≈ 92.3 µM) | Inhibition of the growth of the Fusarium roseum fungi (Fusarium roseum; 10 μmol/ml): 93%; Inhibition of the growth of the Fusarium roseum fungi (Fusarium roseum; 20 μmol/ml): 100%; Inhibition of the growth of the Fusarium sambucinum fungi (Fusarium sambucinum; 10 μmol/ml): 100%; Inhibition of the growth of the Fusarium sambucinum fungi (Fusarium sambucinum; 20 μmol/ml): 100%
13 | CCCCCCCCCCCCNC1OC(CO)C(O)C(O)C1O (centres unmarked) [compound Ij] | showed a bactericidal activity | inhibition of the growth of the bacteria was observed | 16 µg/mL (≈ 46 µM) | 8 µg/mL (≈ 23 µM) | 24 mm | – | – | – | – | – | – | – | 16 µg/mL (≈ 46 µM) | Inhibition of the growth of the fungi (Fusarium roseum; 1 μmol/ml): 100%; Inhibition of the growth of the fungi (Fusarium roseum; 2.5 μmol/ml): 100%; Inhibition of the growth of the fungi (Fusarium roseum; 5 μmol/ml): 100%; Inhibition of the growth of the fungi (Fusarium roseum; 10 μmol/ml): 100%; Inhibition of the growth of the fungi (Fusarium roseum; 20 μmol/ml): 100%; Inhibition of the growth of the fungi (Fusarium roseum; 25 μmol/ml): 100%; Inhibition of the growth of the fungi (Fusarium sambucinum; 1 μmol/ml): 50%; Inhibition of the growth of the fungi (Fusarium sambucinum; 2.5 μmol/ml): 50%; Inhibition of the growth of the fungi (Fusarium sambucinum; 5 μmol/ml): 100%; Inhibition of the growth of the fungi (Fusarium sambucinum; 10 μmol/ml): 100%; Inhibition of the growth of the fungi (Fusarium sambucinum; 20 μmol/ml): 100%; Inhibition of the growth of the fungi (Fusarium sambucinum; 25 μmol/ml): 100%
14 | CCCCCCCCCCCCNC1OC(CO)C(O)C(O)C1O (centres unmarked) [compound Ik] | showed a bactericidal activity | inhibition of the growth of the bacteria was observed | 16 µg/mL (≈ 46 µM) | 2 µg/mL (≈ 5.76 µM) | 24 mm | 96% | 96% | 96% | 32 µg/mL (≈ 92.1 µM) | 96% | 96% | 96% | – | –
